# Test results from US11413261B2, “Pharmaceutical composition for treating cancer comprising lactate metal salt” (METIMEDI PHARMACEUTICALS CO., LTD, priority 2014, dated 2022).
# Columns and labels:
# [1] = Structure and binding energy analysis of metal lactate salts; format: physicochemical; conditions: as compared to sodium lactate and potassium lactate (FIG. 1)
# Excerpt: Calcium carbonate, sodium carbonate, or potassium carbonate was reacted with lactate so as to obtain metal lactate salt (calcium lactate, sodium lactate, or potassium lactate) solutions, respectively. Each of them was filtered, dried, and pulverized so as to obtain metal lactate salt (calcium lactate, sodium lactate, or potassium lactate) in the form of powder. Then, the structure and binding energy of the obtained metal lactate salts (calcium lactate, sodium lactate, or potassium lactate) were analyzed (FIG. 1).
# [2] = tested on: human breast cancer cell line (MCF-7) showing a resistance to Trastuzumab; assay: Colony-forming ability, Trastuzumab in combination with calcium lactate (6-well plates); format: cell-based; conditions: Trastuzumab-resistant MCF-7; 2.5 mM calcium lactate alone; vs control
# Excerpt: Then, the colony-forming abilities of the cells were compared. In this case, a human breast cancer cell line (MCF-7) untreated with any drug was used as a control group (FIGS. 54a and 54b).
# [3] = tested on: colorectal cancer cell line HCT-116; assay: Cell migration of colorectal cancer cell line (culture insert); format: cell-based; conditions: 2.5 mM, 24 hours, then 12 hours after insert removal
# Protocol: A colorectal cancer cell line HCT-116 with the cell number of 4×10^5 cells was inoculated into a culture container at the center of which an ibidi culture insert having a thickness of 500 μm was placed, and treated with 2.5 mM calcium lactate and then cultured for 24 hours. Then, the insert was removed and further cultured for 12 hours to analyze migration of the cancer cells to a site where the insert was removed using a JuLi Br, Live cell analyzer (NanoEnTek Inc., South Korea) (FIG. 18). In this case, a colorectal cancer cell line cultured without treating with calcium lactate was used as a control group.
# PARP [4] = assay: PARP protein expression in breast cancer cell lines (Western blot); format: cell-based, human
# Protocol: Human breast cancer cell lines (MCF-7 and MDA-MB-231) were cultured by the same method as that of Example 2-1 except that they were treated with 0 mM, 2.5 mM, or 5.0 mM calcium lactate, and the cultured cancer cells were obtained. Then, changes in expression level depending on the concentration of calcium lactate was analyzed at the protein expression levels of PARP included therein (FIG. 8). In this case, the change in expression level was analyzed through a Western blot using the Image-J program with anti-PARP antibody as a primary antibody and anti-rabbit IgG conjugate as a secondary antibody, and GAPDH was used as internal control groups.
# β-catenin = β-catenin mRNA (RT-PCR) and protein (Western blot) expression in colorectal cancer cell lines; format: cell-based, human; conditions: HCT-116, HT-29, DLD-1
# Protocol: Human colorectal cancer cell lines (HCT-116, HT-29, and DLD-1) were cultured by the same method as that of Example 2-1 except that they were treated with 0 mM, 1.5 mM, or 2.5 mM calcium lactate, and the cultured cancer cells were obtained. Then, expression levels of […] depending on the concentration of calcium lactate were compared at the expression levels of mRNA and protein included therein.
# Firstly, in order to compare mRNA expression levels, the total RNA was extracted from each of the cancer cells using an RNeasy mini kit and cDNA was synthesized using a reverse transcriptase. The gene of β-catenin was obtained through reverse transcriptase PCR using the synthesized cDNA as a template and the primers described below.
# Then, in order to compare protein expression levels, each of the cancer cells was disrupted and electrophoresis was performed thereto. Then, a Western blot using anti-β-catenin antibody as a primary antibody and an anti-rabbit IgG conjugate as a secondary antibody was conducted (lower part of FIG. 5) and the blots were analyzed with the Image-J program. In this case, actin was used as internal control groups.
# cancer cell = assay: Dissociation of metal lactate salts to lactate in a cancer cell; format: cell-based
# [5] = tested on: LDH-B (lactate dehydrogenase B); assay: LDH-B protein expression (immunofluorescence); format: cell-based, human; conditions: HCT-116 and HT-29; 2.5 mM, 24 hours
# Protocol: Human colorectal cancer cell lines (HCT-116 and HT-29) were treated with 2.5 mM calcium lactate and cultured for 24 hours. The cultured cancer cell lines were immobilized with 4% paraformaldehyde and treated with an anti-rabbit LDHB antibody for 15 hours. Then, the cancer cell lines were washed with PBS and treated with a secondary antibody conjugated with biotin and then reacted at room temperature for 2 hours. Then, the cancer cell lines were treated with streptavidine conjugated with FITC to perform fluorescence staining and then photographed with a fluorescence microscope (FIG. 11a-11c). In this case, cancer cell lines cultured under normoxia condition (N-control) or hypoxia condition (H-control) were used as control groups, and a nucleus of each cell was stained using DAPI. Further, the photos were analyzed using the Xenogen In Vivo Imaging System 100 series and Living imaging software (Xenogen).
# PARP [6] = assay: PARP protein expression in melanoma cell lines; format: cell-based, human; conditions: SKMEL-02 and SKMEL-28; with increasing concentration (0-10 mM), 12 hours
# Protocol: Each of human melanoma cell lines (SKMEL-02 and SKMEL-28) cultured in a cancer cell culture medium (RPMI1640 medium including 10% FBS and 1% penicillin/streptomycin) at 37° C. with 5% CO2 was treated with 0 mM, 0.5 mM, 1.0 mM, 2.5 mM, 5.0 mM, or 10 mM calcium lactate for 12 hours. Then, protein expression levels of PARP expressed in the melanoma cell lines were compared (FIG. 10).
# [7] = tested on: human colorectal cancer cell lines (HCT-116 and HT-29); assay: Pyruvate level in cancer cells (pyruvate assay kit); format: cell-based; conditions: 2.5 mM, 24 hours
# Protocol: Each of human colorectal cancer cell lines (HCT-116 and HT-29) with the cell number of 5×10^5 cells was treated with 2.5 mM calcium lactate for 24 hours and the cells were disrupted by ultrasonication and filtered using a 10 kDa filter so as to obtain filtrate. The obtained filtrate was applied to a pyruvate assay kit (Abcam, Cambridge, Mass.) to measure the concentration of pyruvate included in the filtrate (FIG. 12).
# [8] = tested on: human colorectal cancer cell line (HT-29); assay: Colony-forming ability, anticancer drug in combination with calcium lactate (6-well plates); format: cell-based; conditions: 2.5 mM calcium lactate alone, vs control
# Protocol: (§1) Human colorectal cancer cell line (HT-29) with the cell number of 1×10^3 cells were seeded into an RPMI1640 medium in each of 6-well plates. […]. Then, the colony-forming abilities of the cells were compared. In this case, a human colorectal cancer cell line (HT-29) untreated with any drug was used as a control group (FIGS. 46a and 46b).
# as §1, with “48a” for “46a”, “48b).” for “46b).”
# as §1, with “(FIG. 55).” for “(FIGS. 46a and 46b).”
structure (smiles),measurement,setting,value
CC(O)C(=O)[O-].CC(O)C(=O)[O-].[Ca+2] (stereo not drawn) [calcium lactate],binding energy,[1],relatively high binding energy
same,colony-forming ability,[2],decreased
same,cell migration,[3],decreased
same,protein expression levels of PARP,"PARP [4]; MCF-7 and MDA-MB-231, with increasing concentration (0, 2.5, 5.0 mM)",decreased
same,protein expression levels of the truncated PARP,"PARP [4]; MCF-7 cell line, 0, 2.5, 5.0 mM",increased
same,mRNA expression levels of β-catenin,"β-catenin; 0, 1.5, 2.5 mM",no difference
same,protein expression levels of β-catenin,"β-catenin; with increasing concentration (0, 1.5, 2.5 mM)",decreased
same,dissociation to lactate in a cancer cell,cancer cell,can be dissociated to lactate
same,protein expression levels of LDH-B,[5],sharply increased
same,protein expression levels of PARP,PARP [6],decreased
same,pyruvate levels in the cells,[7],sharply increased
same,colony-forming ability,[8],suppressed
